Publication PMC9605737, “Identification of 6ω-cyclohexyl-2-(phenylamino carbonylmethylthio)pyrimidin-4(3H)-ones targeting the ZIKV NS5 RNA dependent RNA polymerase” (Frontiers in Chemistry, 2022)

How the values were obtained:
ZIKV RdRp = target: T1, ZIKV RdRp (Zika virus, UniProt A0A024B7W1); test: In vitro ZIKV RdRp activity assay (Syto9 fluorescence); type: biochemical; conditions: purified ZIKV RdRp domain, poly-U/ATP, 30°C 60 min; read-out: EC50, inhibition of ZIKV RdRp activity
T1 construct: we expressed and purified ZIKV RdRp domain; made in house; host or cells: Escherichia coli BL21 (DE3)
T1 sequence (A0A024B7W1 2793-3423): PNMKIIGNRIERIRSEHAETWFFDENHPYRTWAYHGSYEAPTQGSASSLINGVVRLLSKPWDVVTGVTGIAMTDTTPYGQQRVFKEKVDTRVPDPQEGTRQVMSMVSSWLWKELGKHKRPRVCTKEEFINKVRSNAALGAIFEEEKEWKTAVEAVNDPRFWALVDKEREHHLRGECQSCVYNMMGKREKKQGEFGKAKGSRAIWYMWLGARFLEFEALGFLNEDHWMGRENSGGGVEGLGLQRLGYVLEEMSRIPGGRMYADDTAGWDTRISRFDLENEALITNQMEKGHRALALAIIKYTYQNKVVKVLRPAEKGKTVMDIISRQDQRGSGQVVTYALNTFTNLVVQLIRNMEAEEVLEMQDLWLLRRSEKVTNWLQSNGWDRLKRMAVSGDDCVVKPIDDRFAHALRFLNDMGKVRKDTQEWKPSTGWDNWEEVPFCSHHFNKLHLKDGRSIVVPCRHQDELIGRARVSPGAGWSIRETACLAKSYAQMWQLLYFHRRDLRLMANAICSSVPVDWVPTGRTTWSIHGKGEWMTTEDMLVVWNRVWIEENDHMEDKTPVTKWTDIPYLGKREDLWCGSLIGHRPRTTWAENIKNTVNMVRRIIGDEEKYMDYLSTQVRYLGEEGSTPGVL
Text: Through molecular docking experiments and cell thermal shift analysis, we supose that 4w may have a direct interaction with ZIKV RdRp. In order to verify whether the binding of 4w and NS5 protein is directly related to ZIKV RdRp, we expressed and purified ZIKV RdRp domain, and detected its activity according to the method described in the literature ([Qian et al., 2022]) (Figure 6A). […] Heparin is a protein chelating agent. […] Heparin was selected as the positive control drug in this experiment, and the syto9-only group was used as the negative control, the same volume of DMSO as a positive control.
The ZIKV RdRp was expressed and purified, and the protein expression and purification method was as described before ([Xu et al., 2017]; [Sáez-Álvarez et al., 2019]). 4w was diluted with protein dialysis buffer to 1,500 nM and stored for later use. In vitro RdRp polymerase activity assay was described previously ([Qian et al., 2022]), 1,500 ng of purified RdRp protein, gradient diluted 4w and positive control drug 5 μM, 2 mg/ml Poly-U, 20mM ATP, 1M Tris-HCl, 100 mg/ml BSA, 100mM MnCl2 was added to a 96-well PCR plate. After mixing, the reaction was performed at 30°C in the dark for 60 min. […] RdRp protein activity was detected on a real-time fluorescence quantitative PCR instrument.

[1] = MTT cytotoxicity assay in A549 cells; type: cell-based; conditions: human
Description: (§1) MTT assay was used to detect the toxicity of the compound. Cells were seeded in 96-well plates and cultured overnight. Compounds with different concentrations were added and incubated for 96 h. Then, 20 μl of 5 mg/ml MTT (Sigma-Aldrich, United States) solution was added to each well and kept at 37°C for 4 h. Subsequently, 100 μl of 12% SDS-50% DMF (Sigma-Aldrich, United States) solution was added and incubated overnight at 37°C. After the crystalline formamidine was completely dissolved, the optical density (OD) value was measured using a microplate reader (BioTek, United States) with a wavelength of 570 nm and a reference wavelength of 630 nm.
(§2) The 50% effective concentration (EC50) and 50% cytotoxic concentration (CC50) of the compound were calculated according to the Reed and Muench method, inhibition rate of ZIKV RNA yield- [(1-drug treatment/positive control) × 100]. The data and graphs were processed using GraphPad Prism8 software, expressed as mean ± standard deviation (Mean ± SD), comparison between groups using ANOVA, p < 0.05 was considered statistically significant.

ZIKV NS5 protein = target: T2, ZIKV NS5 protein (Zika virus, UniProt A0A024B7W1); test: Cell thermal shift assay (CETSA) with WB detection; type: binding; conditions: 50 μM, lysate of ZIKV-infected Vero cells, 60 min; DMSO control 42.3°C
T2 construct: endogenous in cells; host or cells: Vero cells infected with ZIKV
T2 sequence (A0A024B7W1 2521-3423): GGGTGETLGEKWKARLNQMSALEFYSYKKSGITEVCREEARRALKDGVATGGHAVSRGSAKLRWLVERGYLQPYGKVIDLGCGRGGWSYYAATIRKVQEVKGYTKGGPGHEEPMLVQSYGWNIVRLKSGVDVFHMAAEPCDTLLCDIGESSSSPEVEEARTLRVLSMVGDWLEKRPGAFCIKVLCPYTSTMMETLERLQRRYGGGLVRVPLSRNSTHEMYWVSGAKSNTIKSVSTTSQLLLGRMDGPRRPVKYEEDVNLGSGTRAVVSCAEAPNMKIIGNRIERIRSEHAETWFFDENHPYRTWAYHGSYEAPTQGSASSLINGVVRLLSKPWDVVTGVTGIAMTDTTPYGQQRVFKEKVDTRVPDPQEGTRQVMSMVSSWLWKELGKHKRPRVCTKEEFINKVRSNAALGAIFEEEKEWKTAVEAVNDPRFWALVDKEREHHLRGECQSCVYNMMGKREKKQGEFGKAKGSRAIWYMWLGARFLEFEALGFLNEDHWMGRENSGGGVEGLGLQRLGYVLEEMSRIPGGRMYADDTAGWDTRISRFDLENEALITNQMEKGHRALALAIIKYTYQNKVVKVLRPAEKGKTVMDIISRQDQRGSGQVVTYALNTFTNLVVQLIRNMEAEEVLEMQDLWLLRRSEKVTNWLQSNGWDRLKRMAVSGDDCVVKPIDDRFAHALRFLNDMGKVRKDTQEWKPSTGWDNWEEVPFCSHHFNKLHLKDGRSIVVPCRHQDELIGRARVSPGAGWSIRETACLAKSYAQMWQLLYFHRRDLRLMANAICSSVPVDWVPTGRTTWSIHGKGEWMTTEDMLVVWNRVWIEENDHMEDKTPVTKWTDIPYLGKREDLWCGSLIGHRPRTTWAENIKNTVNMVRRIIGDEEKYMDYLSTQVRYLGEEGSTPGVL
Description: Cell thermal shift assay (CETSA) experiments are often used to detect the binding of intracellular drugs to target proteins. The assay was based on the principle of ligand-induced changes in protein thermal stability. The stability of the protein is evaluated by comparing the melting curves between the control group and the experimental group, thus assessing the interaction of the compound with the target protein.
Therefore, in order to further verify the interaction between 4w and ZIKV NS5, ZIKV-infected cell were treated with 4w (at 50 μM concentration), then total protein was incubation for 60 min at room temperature, and it was divided into nine equal parts. The same volume of DMSO was added as a control, and the treated protein was heated in a temperature gradient and then detected ZIKV NS5 protein by WB assay (Figure 5A).
Vero cells were inoculated in a 10 cm cell culture dish and cultured overnight, and after infection with ZIKV (MOI ≈2), maintenance medium was added to continue culturing for 3 days. Detergent-free protein lysis buffer (25 mM HEPES, 20 mM MgCl2, 2 mM DTT) was added, and cells were lysed by sonication. […] The supernatants were collected to prepare the samples, and the binding of 4w and ZIKV NS5 protein was analyzed by Western blotting ([Chen et al., 2020]; [Chen et al., 2021]).

[2] = MTT cytotoxicity assay in Huh7 cells; type: cell-based; conditions: human
Description: as §1, §2

ZIKV = test: Four different methods of drug treatment (virus, co-, pre-, post-treatment); type: cell-based, Zika virus; conditions: viral load
Text: ZIKV RdRp was a important domain in the C-terminal of ZIKV NS5, and plays a crucial role in the replication and synthesis of RNA in the life cycle of ZIKV. In order to further verify that 4w activity is related to RdRp domain inhibition, we examined the effect of 4w on the replication cycle of ZIKV using four different drug treatments and time-sharing withdrawal experiments (Figure 7A).
As mentioned above ([Duan et al., 2019]; [Zou et al., 2020]), according to the different life cycles of the ZIKV, four different drug treatment methods are set: virus treatment, co-treatment, pre-treatment, post-treatment. For virus treatment, the ZIKV and 4w were pre-treated in a 4°C refrigerator for 1 h, then the treated virus was added to the cells for 2 h of infection, and the virus was discarded, washed twice with PBS, and added to maintenance medium (containing 2% FBS DMEM high sugar medium), continue to culture at 37°C, 5% CO2 incubator for 3 days, collect the cell supernatant for RT-PCR and plaque experiments. For co-treatment: add 4w and ZIKV to the cells at the same time, incubate at 37°C, 5% CO2 for 2 h, then remove the virus and compounds, add maintenance medium for 3 days. Pre-treatment: Compound 4w and cells were treated at 4°C for 1 h, then 4w was removed, ZIKV was added for 2 h, remove virus and the maintenance medium was added to continue culturing for 3 days. […]

CCc1c(C2CCCCC2)nc(SCC(=O)Nc2cc(F)cc(F)c2)[nH]c1=O [Compound 4w, 2-{[4-cyclohexyl-5-ethyl-6-oxo-1,6-dihydropyrimidin-2-yl]thio}-N-(3,5-difluorophenyl)acetamide]
EC50 (ZIKV RdRp): 11.4 ± 0.51 µM | CC50 at 96 h [1]: > 200 µM | apparent aggregation temperature (Tagg) of ZIKV NS5 protein (ZIKV NS5 protein): 49.3 °C | CC50 at 96 h [2]: > 200 µM | stage of the ZIKV replication cycle acted on (ZIKV): mainly acts on the post-entry stage of the virus
